Reference: patent publication US9790180B2, “Piperidine derivatives as HDAC1/2 inhibitors” (Acetylon Pharmaceuticals, Inc., priority 2014, dated 2017)
≈ marks a conversion by molar mass, not a printed value.

Legend:
[1] = Rat cassette pharmacokinetics; type: in vivo; conditions: male, SD, plasma
Method: Male SD rats were fasted overnight. Compounds of the invention were dissolved in dimethyl acetamide at 10 times the final concentration, then Solutol HS 15 (BASF) was added to a final concentration of 10%. Finally 80% saline was added and vortexed to achieve a clear solution. For the IV dosing three animals were injected via the foot dorsal vein with 1 mg/kg compound. For the PO dosing 5 mg/kg of compound was delivered by oral gavage. Blood was collected via the tail vein into K2EDTA tubes at 5 minutes, 15 minutes, 30 minutes, 1 hour, 2 hours, 4 hours, 8 hours and 24 hours after dosing. The blood was centrifuged at 2000 g for 5 minutes at 4° C. to obtain plasma. The plasma was extracted with acetonitrile and the level of compound was analyzed by LC/MS/MS. The level of compound in plasma was calculated from a standard curve in rat plasma. The IV clearance and area under the curve were calculated using WinNonLin software. The dose adjusted area under the curve for the IV and oral dosing were used to calculate the oral bioavailability.

[2] = tested on: human peripheral blood lymphocytes (HPBL); assay: Micronucleus formation assay; type: cell-based; conditions: In vitro tox
Method: Genotoxicity was further evaluated by micronucleus formation assay in human peripheral blood lymphocytes (HPBL). HPBL were obtained from healthy donors and exposed to Compound 003 at […] for 4 hours with or without S9 activation. The cells were washed with PBS and incubated in complete medium with 6 μg/ml cytocholasin B for 24 hours. The cells were then lysed, fixed, and mounted on microscope slides. The number of mononucleated, binucleated, and micronucleated cells was counted under blinded conditions.

[3] = tested on: Gata2 mRNA; assay: Gata2 mRNA induction in erythroid progenitors; type: cell-based, human; conditions: primary erythroid progenitors, 3 days differentiation, relative to beta-actin mRNA (FIG. 7)
Description: Human bone marrow derived CD34+ cells were expanded for 7 days as described by Sankaran et al., Science, vol. 322(5909), pp. 1839-42 (2008). Cells were then differentiated, in the presence of the indicated concentration of Compound 005, Compound A (another known HDAC1/2 inhibitor), or vehicle control (DMSO), for 3 days in media supporting erythropoiesis (Hu et al., “Isolation and functional characterization of human erythroblasts at distinct stages: implications for understanding of normal and disordered erythropoiesis in vivo”, Blood, vol. 121(16), pp. 3246-53 ([…])). Gata2 mRNA was determined using quantitative real time PCR and expressed relative to the level beta-actin mRNA control.

[4] = target: HDAC1 (Homo sapiens (Human), UniProt Q13547); assay: HDAC enzyme assay, HDAC1; type: biochemical; conditions: 24 hours pre-incubation with enzyme; read-out: IC50 (nM) HDAC1
Method: (§1) Compounds for testing were diluted in DMSO to 50 fold the final concentration and a ten point three fold dilution series was made. The compounds were diluted in assay buffer (50 mM HEPES, pH 7.4, 100 mM KCl, 0.001% Tween-20, 0.05% BSA, 20 μM tris(2-carboxyethyl)phosphine) to 6 fold their final concentration. The HDAC enzymes (purchased from BPS Biosciences) were diluted to 1.5 fold their final concentration in assay buffer and pre-incubated with the compounds for 24 hours prior to addition of the substrate.
(§2) The substrate tripeptide substrate 3 (synthesized in house) for each enzyme was equal to the Km as determined by a substrate titration curve. The substrates were diluted in assay buffer at 6× their final concentration with 0.3 μM sequencing grade trypsin (Sigma). The substrate/trypsin mix was added to the enzyme/compound mix, the plate was shaken for 60 seconds and placed into a Spectramax M5 microtiter plate reader. The development of fluorescence was monitored for 30 min and the linear rate of the reaction was calculated. The IC50 was determined using Graph Pad Prism by a four parameter curve fit. The IC50 values obtained for the compounds of this invention are found in Table 1. Examples of the curves are found in FIGS. 1 and 4.

[5] = tested on: CYP1A2, CYP2C9, CYP2C19, CYP3A4, CYP2D6; assay: Cyp inhibition in human liver microsomes; type: in vitro ADME; conditions: In vitro tox; human liver microsomes
Method: For Cyp inhibition, human live microsomes from BD Gentest were incubated with Compound 003 (10, 3.33, 1.11, 0.37, 0.12, 0.04, 0.01 μM) and substrate (CYP1A2: Phenacetin at 30 μM; CYP2C9: Diclofenac at 10 μM; CYP2C19: S-Mephenytoin at 35 μM; CYP3A4: Midazolam at 5 μM and Testosterone at 80 μM; CYP2D6: Bufuralol at 10 μM) for the following incubation times: CYP1A2, 2C9, 2D6: 10 minutes, 37° C.; CYP2C19: 45 minutes, 37° C.; CYP3A4: 5 minutes, 37° C. Substrate conversion was measured by liquid chromatography/mass spectrometry/mass spectrometry (LC/MS/MS). Inhibition was calculated by curve fitting in Graph Pad Prism.

[6] = target: hERG channel (Homo sapiens (Human), UniProt Q12809); assay: hERG assay (QPatch, CHO cell line expressing hERG channels); type: cell-based; conditions: In vitro tox
Method: For hERG assays, a CHO cell line stably transfected with hERG cDNA and expressing hERG channels were seeded into a QPatch plate (Sophion) at a density of 3-8×10^6 cells/ml. The cells were voltage clamped at a holding potential of −80 mV. The hERG current was activated by depolarizing at +20 mV for 5 sec, after which the current was taken back to −50 mV for 5 sec to remove the inactivation and observe the deactivating tail current. The maximum amount of tail current size was used to determine hERG current amplitude. Six doses (30, 10, 3, 1, 0.3 and 0.1 μM) of Compound 003 were chosen to obtain fitting curves and IC50. Data were analyzed using Assay Software provided by Sophion and Graphpad Prism.

[7] = Solubility; type: physicochemical
[8] = target: HDAC3 (Homo sapiens (Human), UniProt O15379); assay: HDAC enzyme assay, HDAC3; type: biochemical; conditions: 24 hours pre-incubation with enzyme; read-out: IC50 (nM) HDAC3
Method: as §1, §2

[9] = rat cassette dosing, 5 mg/kg PO

Sequence of HDAC1 (Q13547 whole entry): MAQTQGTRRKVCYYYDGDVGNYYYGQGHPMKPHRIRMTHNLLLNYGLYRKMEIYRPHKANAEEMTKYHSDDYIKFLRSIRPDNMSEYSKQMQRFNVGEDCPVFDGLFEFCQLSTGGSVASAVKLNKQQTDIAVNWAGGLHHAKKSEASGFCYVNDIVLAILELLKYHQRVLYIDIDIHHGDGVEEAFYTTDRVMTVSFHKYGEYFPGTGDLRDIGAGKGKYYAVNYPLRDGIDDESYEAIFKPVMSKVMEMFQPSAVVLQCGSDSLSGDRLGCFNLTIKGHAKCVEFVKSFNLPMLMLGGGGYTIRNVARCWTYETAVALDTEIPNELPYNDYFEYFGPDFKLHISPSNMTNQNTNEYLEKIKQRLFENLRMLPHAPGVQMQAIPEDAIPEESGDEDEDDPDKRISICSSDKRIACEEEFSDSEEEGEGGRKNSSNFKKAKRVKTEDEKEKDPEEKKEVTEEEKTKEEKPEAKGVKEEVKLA
Sequence of HDAC3 (O15379 whole entry): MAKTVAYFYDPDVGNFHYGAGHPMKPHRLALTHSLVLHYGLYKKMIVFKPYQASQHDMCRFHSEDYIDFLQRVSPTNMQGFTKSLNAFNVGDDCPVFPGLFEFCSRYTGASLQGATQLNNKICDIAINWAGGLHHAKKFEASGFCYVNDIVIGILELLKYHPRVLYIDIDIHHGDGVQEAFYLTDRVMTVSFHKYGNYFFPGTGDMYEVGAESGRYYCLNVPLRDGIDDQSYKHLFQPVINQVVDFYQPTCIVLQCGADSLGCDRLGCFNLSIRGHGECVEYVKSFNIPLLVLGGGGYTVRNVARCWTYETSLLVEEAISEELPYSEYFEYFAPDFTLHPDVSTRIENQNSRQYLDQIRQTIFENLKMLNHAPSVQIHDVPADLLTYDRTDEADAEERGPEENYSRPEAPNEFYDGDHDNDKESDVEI
Sequence of HDAC3 (Q9Y618 395-489 partner): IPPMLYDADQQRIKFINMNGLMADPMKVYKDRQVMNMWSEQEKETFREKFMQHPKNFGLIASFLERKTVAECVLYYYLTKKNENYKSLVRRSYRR
Sequence of hERG channel (Q12809 whole entry): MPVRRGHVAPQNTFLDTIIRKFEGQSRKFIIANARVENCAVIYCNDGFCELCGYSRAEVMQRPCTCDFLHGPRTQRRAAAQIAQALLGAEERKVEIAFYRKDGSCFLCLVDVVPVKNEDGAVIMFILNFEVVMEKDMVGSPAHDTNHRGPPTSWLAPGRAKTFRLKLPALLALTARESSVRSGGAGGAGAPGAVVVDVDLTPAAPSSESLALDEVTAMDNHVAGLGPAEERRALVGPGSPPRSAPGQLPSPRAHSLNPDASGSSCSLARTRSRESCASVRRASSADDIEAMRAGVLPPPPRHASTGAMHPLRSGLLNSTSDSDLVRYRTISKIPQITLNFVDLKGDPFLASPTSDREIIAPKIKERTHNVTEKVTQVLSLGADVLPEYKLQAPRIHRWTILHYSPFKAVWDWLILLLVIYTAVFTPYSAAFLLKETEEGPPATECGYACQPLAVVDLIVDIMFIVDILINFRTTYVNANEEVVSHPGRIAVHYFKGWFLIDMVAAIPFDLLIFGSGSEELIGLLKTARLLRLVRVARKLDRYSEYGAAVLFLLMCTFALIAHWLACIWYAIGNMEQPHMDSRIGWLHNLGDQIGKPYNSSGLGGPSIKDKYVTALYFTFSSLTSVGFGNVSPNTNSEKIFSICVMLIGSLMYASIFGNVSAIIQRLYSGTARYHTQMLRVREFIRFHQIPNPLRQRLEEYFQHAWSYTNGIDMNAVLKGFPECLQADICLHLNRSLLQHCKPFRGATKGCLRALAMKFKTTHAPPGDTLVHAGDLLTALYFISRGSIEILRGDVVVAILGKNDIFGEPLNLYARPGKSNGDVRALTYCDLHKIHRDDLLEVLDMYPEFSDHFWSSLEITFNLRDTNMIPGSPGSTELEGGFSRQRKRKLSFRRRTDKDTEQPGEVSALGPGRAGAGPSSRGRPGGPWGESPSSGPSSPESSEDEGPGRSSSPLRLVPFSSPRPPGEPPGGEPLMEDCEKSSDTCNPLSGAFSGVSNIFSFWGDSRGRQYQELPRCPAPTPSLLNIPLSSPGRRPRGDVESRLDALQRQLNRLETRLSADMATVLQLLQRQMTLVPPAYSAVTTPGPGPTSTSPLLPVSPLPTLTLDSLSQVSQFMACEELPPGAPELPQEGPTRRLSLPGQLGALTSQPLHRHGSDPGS

CN1CCN(C(=O)N2CCC(Nc3ccc(C(=O)Nc4cc(-c5cccs5)ccc4N)cc3)CC2)CC1 [Compound 005]
bioavailability ([1]; 5 mg/kg, rat, oral AUC to IV AUC, dose adjusted): 79%
AUC [1, 9]: 9160 ng·h/mL
Cmax [1, 9]: 569 ng/mL
half-life ([1]; rat cassette dosing, 5 mg/kg PO, read-out: PO T½ (converted)): > 24 h
CL renal ([1]; rat cassette dosing, IV 1 mg/kg, read-out: IV Clr. (converted)): 6.33 mL/min/kg
MN [2]: Neg
induction of Gata2 mRNA [3]: equivalent dose and time-dependent induction
IC50 [4]: 1.2 nM
Cyp [5]: >10 µM
hERG [6]: 13.8 µM
solubility [7]: 13.8 µM (≈ 7.16 µg/mL)
IC50 [8]: 82 nM
